How the values were obtained:
Format in all cases: cell-based
[1] = tested on: Human colon cancer WiDr cells; assay: Inhibition of cell proliferation against human cancer cells (Alamar Blue), WiDr; conditions: 72 hours culture
Description: (§1) Human colon cancer WiDr cells or human leukemia K562 cells were inoculated into a 96-well test plate at a density of 5×10^3 cell/well and cultured at 37° C. in a […] incubator. Eighteen hours after the inoculation, the solvent (DMSO) diluted with the medium and various concentrations of the compound Q or R were added, and followed by further culture at 37° C. in a […] incubator for 72 hours. After the culturing, the proliferation of cells was measured with Alamar Blue (BIOSOURCE Co.). The measurement values for the conditions in which 0.1% DMSO and cells had been added, and 0.1% DMSO had been added and cells had not been added were assigned to be 0% inhibition and 100% inhibition, respectively, and the proliferation inhibition rate for each concentration of the compounds was obtained, then the concentration of inhibiting proliferation by 50% (IC50 value) was calculated by logistic regression.

[2] = tested on: human leukemia K562 cells; assay: Inhibition of cell proliferation against human cancer cells (Alamar Blue), K562; conditions: 72 hours culture
Description: as §1

[3] = tested on: acetylated histone H3 in K562 cells; assay: Effect on inducing histone acetylation against human cancer cells (Western blot, anti-acetylated histone H3); conditions: 0.3 to 30 nM, 24 hours, in comparison with the sample treated with solvent
Description: After inoculating K562 cells into a 35 mm dish at a density of 1.5×10^6 cell/dish, the solvent (DMSO) and various concentrations (0.3 to 30 nM) of the compound Q or R were added and cultured at 37° C. in a […] incubator for 24 hours. Extraction of the histone protein was performed by the following method. To the cell precipitate collected by centrifugation, TEN buffer (10 mM Tris HCl (pH 8.0), 1 mM EDTA, 1% NP-40, 1 tablet/10 mL Complete mini (Roche Co.)) was added, stood on the ice for 10 minutes, and the supernatant was collected by centrifugation. The supernatant was mixed well with an equal amount of 0.4 M sulfuric acid, and stood on ice for 1 hour. The supernatant portion was collected by centrifugation, mixed with 5 times amount of acetone and stood at −20° C. for 12 hours or more. The precipitate was collected by centrifugation, washed once with acetone, and then the precipitate was dried. The precipitate was dissolved in distilled water, which was made to be histone protein, the protein concentration was determined by the Bradford method. […] For the primary antibody, an anti-acetylated histone H3 antibody (UPSTATE biotechnology Co.), for the secondary antibody, an HRP labeled anti-rabbit antibody (Amersham Pharmacia Biotech Co.) were used, and luminescence was detected by ECL (Amersham Pharmacia Biotech Co.).

| Structure (SMILES) | IC50 [1] | IC50 [2] | bands of acetylated histone H3 (induction of histone acetylation) [3] |
| --- | --- | --- | --- |
| CC1NC(=O)CC2/C=C/CCSSCC(NC1=O)C(=O)NC(C(C)C)C(O)CC(=O)O2 (stereo not drawn) [compound R] | 0.9 nM | 0.6 nM | significant and dose-dependent bands of acetylated histone H3 were detected |
| CC1NC(=O)CC2/C=C/CCSSSCC(NC1=O)C(=O)NC(C(C)C)C(O)CC(=O)O2 (stereo not drawn) [compound Q] | 3 nM | 1.4 nM | significant and dose-dependent bands of acetylated histone H3 were detected |
